We go through 23 compounds from patent US20250034084A1, “COMPOSITIONS AND METHODS FOR PREVENTING OR TREATING MYCOSIS” (AMTIXBIO CO., LTD., priority 2016, published 2025).

The structures appear in SMILES notation. Converted amounts (≈) assume the structure as drawn.

Experiment in all cases: Antifungal activity assay (MIC), NCCLS method
Type in all cases: cell-based
Common to all, as to conditions: RPMI 1640 medium

Test [1] concerns Candida albicans SC5314 (ATCC). From the text: (§1) In order to measure the minimum inhibitory concentration (MIC), strains Candida albicans SC5314 (ATCC), Candida glabrata BG2 (ATCC), and Cryptococcus neoformans var. grubii […] were used. All the strains used in the test examples of the present invention were purchased from Korean Culture Center of Microorganisms (KCCM) and ATCC, and used. […] As a control group, amphotericin B and fluconazole, which are known to have excellent antifungal inhibitory activity with a problem of human toxicity, were used. Specifically, in order to prepare a medium first, 8.4 g of RPMI-1640 powder (Sigma; […]-1L) was added to 900 ml of distilled water. Next, 34.5 g of MOPS was added thereto, to bring the final concentration to 0.165 M. Then, 100 ml of 20% glucose was added thereto, and then the pH of the resultant was adjusted to 7 using NaOH. Next, after performing filtration with a filter, the filtrate was stored in a refrigeration condition at 4° C. for use in the next experiment. The experimental method and procedure for the MIC assay were as follows: […] (c) in a case of Aspergillus fumigatus, a diluent was prepared at a concentration of 1×10^5 conidia/ml; (d) a 96-well plate was used and 100 μl of the solution was added to each well, so that 2 μl of diluted drug was prepared; (e) 200 μl of the solution was added to a well into which the highest concentration of drug was to be added, and dilution was performed by serial dilution; (f) after performing static culture for 48 hours at 37° C., a degree of growth was measured at OD600 and a comparison was made.

Test [2] deals with Candida glabrata BG2 (ATCC).
Excerpt: as §1

For test [3], the system named is Cryptococcus neoformans var. grubii H99 (ATCC).
Excerpt: as §1

In the case of `CCC(N)C(=O)NCc1ccc(OCc2ccccc2F)cc1.Cl` (racemic) [Compound 17, (R)/(S)-1-((4-((2-(fluorobenzyl)oxy)benzyl)amino)-1-oxobutane-2-aminum chloride], the “MIC C. albicans” value in test [1] was greater than 128 µg/mL. For the same compound, in test [2], the “MIC C. glabrata” value is greater than 128 µg/mL. The “MIC C. neoformans” value in test [3] worked out at 64 µg/mL.

In the case of `CCC(N)C(=O)NCc1ccc(OCc2ccc(F)cc2)cc1.Cl` (racemic) [Compound 19, (R)/(S)-1-((4-((4-(fluorobenzyl)oxy)benzyl)amino)-1-oxobutane-2-aminium chloride], the “MIC C. albicans” value in test [1] was greater than 128 µg/mL. The “MIC C. glabrata” value in test [2] is greater than 128 µg/mL. Also, the “MIC C. neoformans” value in test [3] worked out at 64 µg/mL. Take `CCC(N)C(=O)NCc1ccc(OCc2ccccc2C(F)(F)F)cc1.Cl` (racemic) [Compound 20, (R)/(S)-1-oxo-1-((4-((2-(trifluoromethyl)benzyl)oxy)benzyl)amino)butane-2-aminium chloride]: the “MIC C. albicans” value in test [1] was determined as 64 µg/mL. In test [2], the “MIC C. glabrata” value worked out at 64 µg/mL. Moreover, the “MIC C. neoformans” value in test [3] worked out at 16 µg/mL. With `CCC(N)C(=O)NCc1ccc(OCc2cccc(C(F)(F)F)c2)cc1.Cl` (racemic) [Compound 21, (R)/(S)-1-oxo-1-((4-((3-(trifluoromethyl)benzyl)oxy)benzyl)amino)butane-2-aminium chloride], the “MIC C. albicans” value in test [1] worked out at 64 µg/mL. For the same compound, the “MIC C. glabrata” value in test [2] was 64 µg/mL. In addition, the “MIC C. neoformans” value in test [3] came out at 16 µg/mL. On to `CCC(N)C(=O)NCc1ccc(OCc2cccc(Cl)c2)cc1.Cl` (racemic) [Compound 23, (R)/(S)-1-((4-((3-(chlorobenzyl)oxy)benzyl)amino)-1-oxobutane-2-aminium chloride], for which the “MIC C. albicans” value in test [1] is 64 µg/mL. The “MIC C. glabrata” value in test [2] was determined as 64 µg/mL. In test [3], the “MIC C. neoformans” value is 16 µg/mL. For the compound `CCC(N)C(=O)NCc1ccc(OCc2ccc(Cl)cc2)cc1.Cl` (racemic) [Compound 24, (R)/(S)-1-((4-((4-(chlorobenzyl)oxy)benzyl)amino)-1-oxobutane-2-aminium chloride], the “MIC C. albicans” value in test [1] amounted to 64 µg/mL. In test [2], the “MIC C. glabrata” value came out at 32 µg/mL. In addition, the “MIC C. neoformans” value in test [3] worked out at 16 µg/mL. In the case of `CCCC(N)C(=O)NCc1ccc(OCc2cccc(F)c2)cc1.Cl` (racemic) [Compound 25, (R)/(S)-1-((4-((3-fluorobenzyl)oxy)benzyl)amino)-1-oxopentane-2-aminium chloride], the “MIC C. albicans” value in test [1] worked out at 128 µg/mL. Also, the “MIC C. glabrata” value in test [2] came out at 64 µg/mL. For the same compound, the “MIC C. neoformans” value in test [3] amounted to 32 µg/mL. Consider `CCC(NC)C(=O)NCc1ccc(OCc2ccc(C(F)(F)F)cc2)cc1` (racemic) [Compound 27, (R)/(S)-2-(methylamino)-N-(4-((4-trifluoromethyl)benzyl)oxy)benzyl)butanamide], for which the “MIC C. albicans” value in test [1] amounted to 16 µg/mL (≈ 42.1 µM). Besides, the “MIC C. glabrata” value in test [2] was determined as 16 µg/mL (≈ 42.1 µM). The “MIC C. neoformans” value in test [3] worked out at 4 µg/mL (≈ 10.5 µM). For the compound `CCC(NC)C(=O)NCc1ccc(OCc2ccc(Cl)cc2)cc1` (racemic) [Compound 29, (R)/(S)-N-(4-((4-chlorobenzyl)oxy)benzyl)-2-(methylamino)butanamide], in test [1], the “MIC C. albicans” value was found to be 32 µg/mL (≈ 92.3 µM). In test [2], the “MIC C. glabrata” value is 32 µg/mL (≈ 92.3 µM). Besides, the “MIC C. neoformans” value in test [3] was 8 µg/mL (≈ 23.1 µM). Consider `Cl.O=C(NCc1ccc(OCc2cccc(F)c2)cc1)C1CCCN1` (racemic) [Compound 38, (R)/(S)-N-(4-((3-fluorobenzyl)oxy)benzyl)pyrrolidine-2-carboxamide hydrochloride], for which the “MIC C. neoformans” value in test [3] (hydrochloride) stood at 128 µg/mL. Take `CCC(N)C(=O)NCc1ccc(OCc2ccc(Cl)c(Cl)c2)cc1.Cl` (racemic) [Compound 57, (R)/(S)-1-((4-(3,4-dichlorobenzyl)oxy)benzyl)amino)-1-oxobutane-2-aminium chloride]: the “MIC C. neoformans” value in test [3] was found to be 8 µg/mL.

Regarding `CCCC(N)C(=O)NCc1ccc(OCc2ccc(Cl)c(Cl)c2)cc1.Cl` (racemic) [Compound 58, (R)/(S)-1-((4-((3,4-dichlorobenzyl)oxy)benzyl)amino)-1-oxopentane-2-aminium chloride], the “MIC C. neoformans” value in test [3] stood at 4 µg/mL. Still for that read-out and setting: next, `CCC(C(=O)NCc1ccc(OCc2ccc(C(F)(F)F)cc2)cc1)N(C)C` (racemic) [Compound 59, (R)/(S)-2-(dimethylamino)-N-(4-((4-trifluoromethyl)benzyl)oxy)benzyl)butanamide]: 8 µg/mL (≈ 20.3 µM).

Regarding `CCC(C(=O)NCc1ccc(OCc2ccc(Cl)c(Cl)c2)cc1)N(C)C` (racemic) [Compound 60, (R)/(S)-N-(4-((3,4-dichlorobenzyl)oxy)benzyl)-2-(dimethylamino)butanamide], in test [3], the “MIC C. neoformans” value was found to be 8 µg/mL (≈ 20.2 µM). Still for that read-out and setting: next, `CCC(C(=O)NCc1ccc(OCc2ccc(Cl)c(Cl)c2)cc1)N(C)C` (racemic) [Compound 61, (R)/(S)-N-(4-((3,4-dichlorobenzyl)oxy)benzyl)-2-(dimethylamino)butanamide]: 2 µg/mL (≈ 5.06 µM); `CCNC(CC)C(=O)NCc1ccc(OCc2ccc(C(F)(F)F)cc2)cc1` (racemic) [Compound 62, (R)/(S)-2-(ethylamino)-N-(4-((4-trifluoromethyl)benzyl)oxy)benzyl)butanamide]: 8 µg/mL (≈ 20.3 µM); `CCNC(CC)C(=O)NCc1ccc(OCc2ccc(Cl)c(Cl)c2)cc1` (racemic) [Compound 63, (R)/(S)-N-(4-((3,4-dichlorobenzyl)oxy)benzyl-2-(ethylamino)butanamide]: 4 µg/mL (≈ 10.1 µM). Consider `CCCC(NCC)C(=O)NCc1ccc(OCc2ccc(C(F)(F)F)cc2)cc1` (racemic) [Compound 64, (R)/(S)-2-(ethylamino)-N-(4-((4-(trifluoromethyl)benzyl)oxy)benzyl)pentanamide], for which the “MIC C. neoformans” value in test [3] was 4 µg/mL (≈ 9.79 µM). The same measure, in the same setting: next, `CCCC(NCC)C(=O)NCc1ccc(OCc2ccc(Cl)c(Cl)c2)cc1` (racemic) [Compound 65, (R)/(S)-N-(4-((3,4-dichlorobenzyl)oxy)benzyl-2-(ethylamino)pentanamide]: 2 µg/mL (≈ 4.89 µM); `CCC(C(=O)NCc1ccc(OCc2ccc(C(F)(F)F)cc2)cc1)N(CC)CC` (racemic) [Compound 66, (R)/(S)-2-(diethylamino)-N-(4-((4-(trifluoromethyl)benzyl)oxy)benzyl)butanamide]: 4 µg/mL (≈ 9.47 µM). As for `CCC(C(=O)NCc1ccc(OCc2ccc(Cl)c(Cl)c2)cc1)N(CC)CC` (racemic) [Compound 67, (R)/(S)-N-(4-((3,4-dichlorobenzyl)oxy)benzyl-2-(diethylamino)butanamide], in test [3], the “MIC C. neoformans” value is 2 µg/mL (≈ 4.72 µM). Still for that read-out and setting: as for `CCCC(C(=O)NCc1ccc(OCc2ccc(C(F)(F)F)cc2)cc1)N(CC)CC` (racemic) [Compound 68, (R)/(S)-2-(diethylamino)-N-(4-((4-(trifluoromethyl)benzyl)oxy)benzyl)pentanamide], the figure is 2 µg/mL (≈ 4.58 µM). As for `CCCC(C(=O)NCc1ccc(OCc2ccc(Cl)c(Cl)c2)cc1)N(CC)CC` (racemic) [Compound 69, (R)/(S)-N-(4-((3,4-dichlorobenzyl)oxy)benzyl-2-(diethylamino)pentanamide], the “MIC C. neoformans” value in test [3] was found to be 1 µg/mL (≈ 2.29 µM).
